Measurements as given in US20150322083A1, “(THIENO[2,3-b][1,5]BENZOXAZEPIN-4-YL)PIPERAZIN-1-YL COMPOUNDS AS SELECTIVE 5-HT2A INVERSE AGONISTS” (Eli Lilly and Company, priority 2014, published 2015).
Where a name gives a salt, the structure may show the parent alone.

Key:
[1] = target: 5-HT2B (Homo sapiens, UniProt P41595); test: 5-HT2B binding (selectivity data)
Experimental: (§1) Curves are evaluated using a 4-parameter logistic nonlinear equation to obtain the concentration of competitor causing 50% inhibition of radioligand binding (IC50). Equilibrium dissociation constants (Ki) are calculated according to the equation Ki=IC50/(1+L/Kd), where L equals the concentration of radioligand used in the experiment and Kd equals the equilibrium dissociation constant of the radioligand for the receptor, determined from standard saturation analysis or homologous competition experiments. Reported values for Ki, where n values are indicated, are shown as geometric mean±the standard error of the mean (SEM), with the number of replicate determinations indicated by n. Geometric means are calculated by the equation GeoMean=10̂(Average(log Ki 1+log Ki 2+ . . . log Ki n)/[…]).
(§2) Further, the compounds of the invention may be tested in binding assays and functional activity assays by well known methods for other physiologically important receptors such as, but not limited to, the hERG channel, other serotonin receptors (specifically 5-HT1B receptors, lack of agonist activity at 5-HT2B receptors, 5-HT2C, 5-HT5, 5-HT6, and 5-HT7 receptors), dopaminergic receptors (specifically D1, D2, and D3), H1 receptors, GABAA receptors, adrenergic receptors and monoamine transporters.

[2] = target: T1, recombinant 5-HT2C receptors (human) (Homo sapiens, UniProt P28335); test: 5-HT2C competition binding assay ([125I]-(±)DOI, SPA)
T1 construct: expressed in transfected cells
Experimental: [^125I]-(±)DOI binding experiments are carried out in SPA 96-well format. Membranes used in this assay are prepared from AV-12 cells stably expressing recombinant 5-HT2C receptors (human). The incubation is initiated by the addition of a mixture of WGA PVT SPA beads (0.5 mg/well, Perkin Elmer (MA, USA), RPNQ0001) and 2.5 μg membranes to assay buffer (50 mM Tris-HCl, 10 mM MgCl2, 0.5 mM EDTA, 10 μM pargyline, 0.1% ascorbic acid, pH7.4) containing 0.2 nM [[^125I]-(±)DOI and varying concentrations of the test compound (10 point concentration response curves). Non-specific binding is determined in the presence of 20 μM 1-(1-naphthyl)piperazine. Samples are incubated for 4 hr. at room temperature (22° C.) and then read in a microplate scintillation counter.
(§3) Curves are evaluated using a 4-parameter logistic nonlinear equation to obtain the concentration of competitor causing 50% inhibition of radioligand binding (IC50). Equilibrium dissociation constants (Ki) are calculated according to the equation Ki=IC50/(1+L/Kd), where L equals the concentration of radioligand used in the experiment and Kd equals the equilibrium dissociation constant of the radioligand for the receptor, determined from standard saturation analysis or homologous competition experiments. […]

[3] = system: native GABAA receptors; test: GABAA antagonism using native receptors in primary neuronal cultures (FLIPR calcium flux); type: cell-based; conditions: against 10 μM GABA, rat cortical embryonic neurons
Experimental: Activity of compounds on native GABAA receptors is evaluated by monitoring calcium fluxes using a 96 well format FLIPR® system (Fluorometric Imaging Plate Reader (FLIPR®, Molecular Devices). Briefly, cortical embryonic neurons are dissociated from E18 rat embryos and plated at optimum density into black-walled, transparent bottom poly-D-lysine coated 96-well FLIPR® plates. After loading the cells with a calcium sensitive dye (Fluo4-AM, Molecular Devices), the cells are bathed in a solution containing low chloride (chloride replaced by gluconate). Under these conditions activation of GABAA receptors causes an efflux of chloride ions (in the direction of the chemical gradient), which results in membrane depolarization and consequently activation of voltage gated calcium channels (VGCCs). Calcium influx through VGCCs is recorded and analysed offline using the FLIPR® system. For a pharmacological validation of the assay, concentration response curves (CRC) are recorded for the standard agonist (GABA) and standard antagonist (Gabazine). […]
The antagonist effects of compounds are quantified using 10-point dose response curves by comparing the peak fluorescent responses to the agonist GABA in the presence and absence of compound. […] Antagonist effects are calculated as a percent of the assay window. […]

[4] = target: Dopamine D1 (Homo sapiens, UniProt P21728); test: Dopamine D1 binding
Experimental: as §1, §2

[5] = target: Dopamine D2 (Homo sapiens, UniProt P14416); test: Dopamine D2 binding
Experimental: as §1, §2

[6] = target: Dopamine D3 (Homo sapiens, UniProt P35462); test: Dopamine D3 binding
Experimental: as §1, §2

[7] = target: H1 receptors (Homo sapiens, UniProt P35367); test: H1 receptor binding
Experimental: as §1, §2

[8] = target: Adrenergic alpha1A (Homo sapiens, UniProt P35348); test: Adrenergic alpha1A binding
Experimental: as §1, §2

[9] = target: Adrenergic alpha1B (Homo sapiens, UniProt P35368); test: Adrenergic alpha1B binding
Experimental: as §1, §2

[10] = target: Adrenergic alpha2A (Homo sapiens, UniProt P08913); test: Adrenergic alpha2A binding
Experimental: as §1, §2

[11] = target: Adrenergic alpha2C (Homo sapiens, UniProt P18825); test: Adrenergic alpha2C binding
Experimental: as §1, §2

[12] = target: Serotonin Transporter (Homo sapiens, UniProt P31645); test: Serotonin transporter binding
Experimental: as §1, §2

[13] = target: Norepinephrine Transport (Homo sapiens, UniProt P23975); test: Norepinephrine transporter binding
Experimental: as §1, §2

[14] = target: Dopamine Transporter (Homo sapiens, UniProt Q01959); test: Dopamine transporter binding
Experimental: as §1, §2

[15] = target: recombinant human 5-HT2A receptor (Homo sapiens, UniProt P28223); test: 5-HT2A competition binding assay ([3H]-Ketanserin, SPA); parameters: expressed in transfected cells
Experimental: [^3H]-Ketanserin binding experiments are carried out in SPA 96-well format. Membranes used in this assay are prepared from AV-12 cells stably expressing recombinant 5-HT2A receptors (human). The incubation is initiated by the addition of a mixture of WGA YSi SPA beads (1 mg/well, Perkin Elmer (MA, USA), Product No. RPNQ0011) and 2 μg membranes to assay buffer (67 mM Tris, 0.5 mM EDTA; pH 7.6) containing 3.1 nM [^3H]-Ketanserin and varying concentrations of the test compound (10 point concentration response curves). Non-specific binding is determined in the presence of 20 μM 1-(1-naphthyl)piperazine. Samples are incubated for 4 hr. at room temperature (22° C.) and then read in a microplate scintillation counter.
as §3

Sequence of Serotonin Transporter (P31645 whole entry): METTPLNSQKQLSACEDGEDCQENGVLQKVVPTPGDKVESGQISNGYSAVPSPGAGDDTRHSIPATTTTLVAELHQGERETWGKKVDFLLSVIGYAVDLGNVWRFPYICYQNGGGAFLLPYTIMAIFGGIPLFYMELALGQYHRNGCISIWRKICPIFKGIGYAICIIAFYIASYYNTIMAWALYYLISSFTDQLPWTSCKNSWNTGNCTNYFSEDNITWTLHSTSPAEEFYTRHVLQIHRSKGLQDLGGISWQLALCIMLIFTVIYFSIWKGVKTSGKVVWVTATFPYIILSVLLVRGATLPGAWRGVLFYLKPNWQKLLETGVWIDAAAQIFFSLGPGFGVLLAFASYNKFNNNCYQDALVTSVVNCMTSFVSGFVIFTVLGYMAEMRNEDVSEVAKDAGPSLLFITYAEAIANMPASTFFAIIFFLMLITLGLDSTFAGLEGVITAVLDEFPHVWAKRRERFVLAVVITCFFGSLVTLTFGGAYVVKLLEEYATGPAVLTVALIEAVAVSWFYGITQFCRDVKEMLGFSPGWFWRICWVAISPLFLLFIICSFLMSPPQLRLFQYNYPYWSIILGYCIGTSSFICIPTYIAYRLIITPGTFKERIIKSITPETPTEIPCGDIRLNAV
Sequence of Dopamine D3 (P35462 whole entry): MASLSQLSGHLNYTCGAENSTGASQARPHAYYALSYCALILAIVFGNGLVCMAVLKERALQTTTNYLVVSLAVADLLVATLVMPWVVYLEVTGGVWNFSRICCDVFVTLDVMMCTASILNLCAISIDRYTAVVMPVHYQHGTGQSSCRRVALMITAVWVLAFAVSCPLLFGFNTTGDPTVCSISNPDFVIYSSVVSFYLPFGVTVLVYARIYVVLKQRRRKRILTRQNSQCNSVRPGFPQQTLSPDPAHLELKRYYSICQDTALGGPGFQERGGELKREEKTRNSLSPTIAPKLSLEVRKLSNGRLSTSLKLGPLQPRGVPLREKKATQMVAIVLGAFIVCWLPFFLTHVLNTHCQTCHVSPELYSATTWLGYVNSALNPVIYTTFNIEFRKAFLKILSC
Sequence of Norepinephrine Transport (P23975 whole entry): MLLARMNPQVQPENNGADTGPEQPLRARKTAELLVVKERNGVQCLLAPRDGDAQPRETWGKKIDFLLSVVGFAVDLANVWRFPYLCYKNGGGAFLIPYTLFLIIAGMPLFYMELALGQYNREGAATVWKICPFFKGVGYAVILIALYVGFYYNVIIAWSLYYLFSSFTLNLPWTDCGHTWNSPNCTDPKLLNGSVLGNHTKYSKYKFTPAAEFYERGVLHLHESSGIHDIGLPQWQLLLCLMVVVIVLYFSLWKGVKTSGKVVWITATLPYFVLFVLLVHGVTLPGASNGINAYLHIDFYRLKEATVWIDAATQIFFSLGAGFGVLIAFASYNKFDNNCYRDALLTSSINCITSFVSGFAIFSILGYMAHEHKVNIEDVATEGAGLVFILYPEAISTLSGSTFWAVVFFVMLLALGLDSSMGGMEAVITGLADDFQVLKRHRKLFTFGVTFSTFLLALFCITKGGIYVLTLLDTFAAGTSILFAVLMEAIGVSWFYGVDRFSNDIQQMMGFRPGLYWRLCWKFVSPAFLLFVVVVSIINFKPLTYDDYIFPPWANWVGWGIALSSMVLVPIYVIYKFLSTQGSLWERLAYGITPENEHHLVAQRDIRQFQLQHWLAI
Sequence of Dopamine Transporter (Q01959 whole entry): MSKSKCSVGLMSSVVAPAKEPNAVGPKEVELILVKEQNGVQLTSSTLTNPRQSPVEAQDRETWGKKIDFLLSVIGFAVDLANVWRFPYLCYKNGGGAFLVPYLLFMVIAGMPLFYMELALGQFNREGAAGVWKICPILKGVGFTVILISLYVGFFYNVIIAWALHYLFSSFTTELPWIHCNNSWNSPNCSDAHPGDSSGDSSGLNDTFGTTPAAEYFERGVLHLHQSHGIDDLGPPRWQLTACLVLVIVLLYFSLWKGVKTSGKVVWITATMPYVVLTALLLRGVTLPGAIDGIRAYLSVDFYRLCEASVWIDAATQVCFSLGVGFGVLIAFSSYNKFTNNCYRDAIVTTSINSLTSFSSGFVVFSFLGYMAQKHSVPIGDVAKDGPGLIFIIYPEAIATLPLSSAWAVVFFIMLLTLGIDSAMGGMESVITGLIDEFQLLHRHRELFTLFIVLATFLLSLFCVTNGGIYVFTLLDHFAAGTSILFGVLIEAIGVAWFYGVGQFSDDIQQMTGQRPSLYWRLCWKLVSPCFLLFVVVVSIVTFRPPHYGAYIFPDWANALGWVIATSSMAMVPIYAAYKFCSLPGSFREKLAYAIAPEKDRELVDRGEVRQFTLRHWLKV
T1 sequence (P28335 33-458): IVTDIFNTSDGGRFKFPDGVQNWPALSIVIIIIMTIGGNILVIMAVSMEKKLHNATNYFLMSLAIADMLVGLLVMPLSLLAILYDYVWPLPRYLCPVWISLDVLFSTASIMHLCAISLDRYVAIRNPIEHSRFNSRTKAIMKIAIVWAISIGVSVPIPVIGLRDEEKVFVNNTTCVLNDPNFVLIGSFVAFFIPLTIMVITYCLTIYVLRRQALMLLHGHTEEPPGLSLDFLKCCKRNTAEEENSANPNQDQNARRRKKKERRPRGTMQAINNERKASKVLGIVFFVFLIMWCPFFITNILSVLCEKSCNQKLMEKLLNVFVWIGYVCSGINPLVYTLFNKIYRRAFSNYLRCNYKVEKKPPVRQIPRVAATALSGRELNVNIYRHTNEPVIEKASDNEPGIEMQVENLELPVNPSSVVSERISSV
Sequence of H1 receptors (P35367 whole entry): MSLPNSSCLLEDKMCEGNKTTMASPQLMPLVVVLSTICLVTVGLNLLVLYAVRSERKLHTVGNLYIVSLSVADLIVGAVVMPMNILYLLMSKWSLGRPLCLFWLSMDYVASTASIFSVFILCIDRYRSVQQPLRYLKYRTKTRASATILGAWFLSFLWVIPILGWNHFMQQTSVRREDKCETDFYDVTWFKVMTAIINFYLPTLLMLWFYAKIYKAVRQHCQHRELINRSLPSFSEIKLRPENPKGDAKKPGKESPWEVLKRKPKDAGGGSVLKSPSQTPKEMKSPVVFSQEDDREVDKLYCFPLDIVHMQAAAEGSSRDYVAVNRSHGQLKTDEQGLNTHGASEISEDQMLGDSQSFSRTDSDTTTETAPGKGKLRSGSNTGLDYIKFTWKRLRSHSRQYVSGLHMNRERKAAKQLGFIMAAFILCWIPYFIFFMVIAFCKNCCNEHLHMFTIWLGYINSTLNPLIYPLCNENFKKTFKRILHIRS
Sequence of Dopamine D2 (P14416 whole entry): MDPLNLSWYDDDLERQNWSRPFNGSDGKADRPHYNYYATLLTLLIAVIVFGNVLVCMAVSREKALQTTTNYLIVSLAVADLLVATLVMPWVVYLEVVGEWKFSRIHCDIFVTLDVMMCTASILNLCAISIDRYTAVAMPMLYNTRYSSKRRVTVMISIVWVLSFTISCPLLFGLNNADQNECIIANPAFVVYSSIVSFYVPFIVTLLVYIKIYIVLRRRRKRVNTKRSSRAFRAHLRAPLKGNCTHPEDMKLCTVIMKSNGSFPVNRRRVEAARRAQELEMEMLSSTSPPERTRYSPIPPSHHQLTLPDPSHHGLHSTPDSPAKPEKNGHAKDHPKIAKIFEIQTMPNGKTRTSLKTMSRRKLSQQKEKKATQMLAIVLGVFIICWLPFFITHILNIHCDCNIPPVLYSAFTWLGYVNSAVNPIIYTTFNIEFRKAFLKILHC
Sequence of Adrenergic alpha1A (P35348 whole entry): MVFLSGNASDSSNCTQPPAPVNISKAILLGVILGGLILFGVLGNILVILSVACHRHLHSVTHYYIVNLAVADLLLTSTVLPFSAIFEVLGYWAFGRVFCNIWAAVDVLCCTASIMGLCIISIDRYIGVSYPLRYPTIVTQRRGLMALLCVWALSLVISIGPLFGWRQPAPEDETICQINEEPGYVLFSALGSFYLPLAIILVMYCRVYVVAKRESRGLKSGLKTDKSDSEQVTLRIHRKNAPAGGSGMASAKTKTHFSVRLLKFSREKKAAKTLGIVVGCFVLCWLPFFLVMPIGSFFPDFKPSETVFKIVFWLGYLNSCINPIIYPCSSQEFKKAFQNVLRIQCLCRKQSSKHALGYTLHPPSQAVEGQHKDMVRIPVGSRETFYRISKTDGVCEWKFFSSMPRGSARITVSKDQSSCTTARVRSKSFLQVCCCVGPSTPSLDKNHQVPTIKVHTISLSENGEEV
Sequence of 5-HT2B (P41595 whole entry, species assumed): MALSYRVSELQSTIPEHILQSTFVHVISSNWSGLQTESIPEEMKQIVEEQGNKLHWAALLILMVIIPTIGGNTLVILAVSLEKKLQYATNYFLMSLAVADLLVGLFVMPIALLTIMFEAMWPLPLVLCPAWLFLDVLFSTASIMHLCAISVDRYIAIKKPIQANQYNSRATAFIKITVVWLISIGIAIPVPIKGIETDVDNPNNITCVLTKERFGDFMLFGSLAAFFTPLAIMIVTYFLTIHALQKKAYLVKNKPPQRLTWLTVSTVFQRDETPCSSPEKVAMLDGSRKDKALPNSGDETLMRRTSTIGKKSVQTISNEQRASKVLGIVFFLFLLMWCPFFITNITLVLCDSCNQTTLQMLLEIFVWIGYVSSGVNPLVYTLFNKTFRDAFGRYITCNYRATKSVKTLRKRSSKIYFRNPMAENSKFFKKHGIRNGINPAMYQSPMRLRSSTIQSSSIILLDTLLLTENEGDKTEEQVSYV

In the case of Cc1ccc2c(c1)Oc1sc(SC(C)C)cc1C(N1CCN(CC(C)(C)C(=O)O)CC1)=N2 [Example 2, 3-[4-(2-Isopropylsulfanyl-8-methyl-thieno[2,3-b][1,5]benzoxazepin-4-yl)piperazin-1-yl]-2,2-dimethyl-propanoic acid dihydrochloric acid salt], the Ki [1] is reported as 767 nM, the Ki [2] is reported as 772 nM and the IC50 [3] is reported as 41000 nM. It also gave a Ki [4] of 3760 nM, a Ki [5] of over 3670 nM and a Ki [6] of over 5880 nM. For the same molecule, the Ki [7] was 893 nM, the Ki [8] was over 13400 nM and the Ki [9] was 10400 nM. It also gave a Ki [10] of over 8820 nM, a Ki [11] of over 6750 nM and a Ki [12] of over 651 nM. For the same molecule, the Ki [13] was over 691 nM, the Ki [14] was over 875 nM and the Ki [15] was 6.2 nM.
